Laboratory results as given in patent publication US11666517B2, “Antimicrobial composition” (Firmenich SA, priority 2016, dated 2023).
Where two headings read alike, the source gives them in different places.

How the values were obtained:
[1] = tested on: E. coli DSMZ 1103; assay: Fractional Inhibitory Concentration Index (FIC) / MIC, 96-well broth dilution of ingredient combinations; format: cell-based, Escherichia coli; details: for MIC: Escherichia coli, DSMZ1103, 24 h, read-out: Concentration of ingredient alone (Minimal Inhibitory Concentration, MIC alone); for FIC: ingredient alone at its MIC
Protocol: (§1) The method below allows evaluating antimicrobial activity of different raw materials in combination. The Fractional Inhibitory Concentration Index (FIC Index) is a measure of activity (Garcia L. S., Clinical Microbiology Procedures Handbook, pg. 140-162, 3rd Edition (2010), ASM Press, Washington D.C.) and is calculated according to the formula below:
(§2) [formula] where (MICA alone) and (MICB alone) are the Minimal Inhibitory Concentrations (MIC) of individual ingredients A and B when used in isolation, respectively; whereas (MICA combination) and (MICB combination) are the Minimal Inhibitory Concentrations of materials A and B when tested in combination. Ingredient A corresponds to nona-2,6-dien-1-ol and ingredient B stands for 3-neopentylpyridine, 2-methylhexan-3-one oxime, terpineol or 2-isopropyl-5-methylphenol.
(§3) The Minimal Inhibitory Concentration of a material is defined as the lowest concentration of an agent which can inhibit visible bacterial growth (CLSI M08-A8 Methods for dilution Antimicrobial Susceptibility Test for Bacteria That Grow Aerobically; Approved Standard-Eighth Edition).
(§4) Bacterial suspensions of E. coli DSMZ 1103 and S. aureus DSMZ 1104 were prepared as follows: a frozen stock aliquot was streaked on a Tryptic Soy Agar plate, which was then incubated at 37° C. for 24 hours. A single bacterial colony was picked and inoculated into 50 ml of Mueller Hinton Broth contained in a 100 ml-flask. Incubation was performed overnight at 37° C., under agitation (160 rpm). The following day, the overnight culture was diluted into 50 ml of fresh Mueller Hinton Broth at 1:50 and 1:100 for S. aureus and E. coli, respectively. Growth at 37° C. was continued as described above until the absorbance measured at 600 nm reached 0.7-0.9 and 0.3-0.45 for S. aureus and E. coli, respectively. At this point, cells were harvested by centrifugation (10 min—5000×g—4° C.) and suspended in fresh Mueller Hinton Broth at a concentration of 1×10^8 CFU/ml.
(§5) Solutions of raw materials under evaluation (ingredients A and B) were prepared in ethanol and then serially diluted in the desired concentration into 96-well microtiter plates (10 μl per well). Columns 1, 10, 11 and 12 received only 10 μl ethanol without any testing material. The final concentration of ethanol was 5% w/v for all wells.
(§6) Then, 90 μl of cell suspension as prepared above were added to each well of the microtiter plate, with the exception of column 12 which received 90 μl of Mueller Hinton Broth. The final volume of each well was brought to 200 μl with Mueller Hinton Broth. Each plate was sealed and incubated at 37° C. for 24 hours, under agitation (160 rpm). After incubation, plate reading was performed visually by recording wells with visible bacterial growth. Each combination of materials was tested in triplicate. Turbidity due to potential precipitation of raw materials was taken into account by scoring plates containing identical raw material concentrations, without bacteria.

[2] = tested on: S. aureus DSMZ 1104; assay: as above; format: cell-based, Staphylococcus aureus; details: for MIC: Staphylococcus aureus, DSMZ1104, 24 h, read-out: Concentration of ingredient alone (Minimal Inhibitory Concentration, MIC alone); for FIC: ingredient alone at its MIC
Protocol: as §1, §2, §3, §4, §5, §6

[3] = tested on: E. coli DSMZ 1103; assay: BCT test in 50% liquid soap base; format: cell-based, Escherichia coli; details: Table 21: single material 0.3% in 50% liquid soap base, contact time 45 sec
Protocol: Bacterial solutions of the two strains, E. coli DSMZ 1103 and S. aureus DSMZ 1104, were prepared for BCT test as follows. Stock cultures stored at −80° C. were sub-cultured onto Tryptic Soy Agar (TSA) agar plate media, and incubated at 37° C. for 24 h to obtain single colonies. Single colonies of the primary cultures were streaked onto TSA slant and incubate it at 37° C. incubator for 24 h. Bacterial lawns of the slant culture were collected in PBS buffer to make suspensions with the target level of 1-5×10^8 CFU/mL. The 1:100 dilution of each cell suspension in PBS buffer was used as the bacterial solutions for the BCT test.
Test samples of base with synergistic binary mixtures were prepared as follows. Raw materials of the synergistic binary mixtures (Table 17) were mixed with the liquid soap base PGK-10-003 (Table 18). Aliquots (2.5 g) of each mixture were weighed into 20 ml glass tube with a stirrer bar, and added with equal amount of MilliQ water to make 50% suspension as the test samples for the BCT test.
BCT tests were performed in the 20 ml sample tubes. Each sample tube with 5 g of 50% sample suspension was placed onto a magnetic stirrer, and an aliquot of bacterial solution (100 μl) was added to the sample and allowed for a contact of 45 sec during mixing. Then aliquots (0.5 ml) of the mixture were transferred into 5 ml PBS, and further serial dilutions were made in 4.5 ml PBS. Aliquots (0.5 ml) of PBS dilutions were plated onto duplicate plates of TSA plates using the pour plate method. TSA plates were incubated at 37° C. for 48 h. After incubation, colonies on TSA plates were enumerated and log reduction of each sample were calculated against the CFU counts of the control sample (MilliQ water).

[4] = tested on: C. xerosis ATCC 373; assay: BCT test in 90% roll-on deodorant base; format: cell-based, Corynebacterium xerosis; details: Table 25: single material 0.216% in 90% roll-on deodorant base, contact time 120 sec
Protocol: Bacterial solution of C. xerosis ATCC 373 strain was prepared for BCT test as follows. Stock cultures stored at −80° C. were subcultured onto Tryptic Soy Agar media with 0.5% Tween 80 (TSA-TW80), and incubated at 37° C. for 48 h. The primary cultures were subcultured onto TSA-TW80 again to prepare the secondary cultures. Single colonies of secondary culture were inoculated into 30 ml of Brain Heart Infusion (BHI) broth with 0.5% Tween 80 (BHI-TW80), and incubated at 37° C. 180 rpm for 24 h. Aliquots (1 ml) of the 24 h culture were inoculated into 30 ml of fresh BHI-TW80 broth, and incubated at 37° C. 180 rpm for 48 h. Aliquots (2-3 ml) of the 48 h culture were inoculated into four 50 ml of fresh BHI-TW80 broth medium, and incubated at 37° C. 180 rpm for 4-6 hrs. When the OD reached the target value of 1.6, cells were harvested by centrifugation at 5000 rpm for 10 min, and then resuspended in the same fresh broth media to a target concentration of 10^9 to 10^10 cfu/mL. This suspension was used as the bacterial solution for the BCT test.
Test samples of base with synergistic binary mixtures were prepared as follows. Raw materials of the synergistic binary mixtures were weighed (Table 22), and mixed with 0.3 g PEG-40 Hydrogenated Castor Oil and 9.57 g deodorant roll on base (Table 23).
BCT tests were performed in 15 ml sample tubes. Aliquots (0.9 g) of each sample were weighed into the tube, and an aliquot of bacterial solution (100 μl) was added to the sample and allowed for a contact time of 120 sec with constant mixing. At the end of the contact time, aliquots (9 ml) of BHI broth were added to the tube. The suspensions were mixed well by vortexing, and further 1:10 serial dilutions were made in […] BHI. Aliquots (1 ml) of BHI dilutions were plated onto duplicate plates of TSA-TW80 using pour plate methods. TSA-TW80 plates were incubated at 37° C. for 2-3 days. After incubation, colonies on TSA-TW80 plates were enumerated and log reduction of each sample were calculated against the CFU counts of the control sample (BHI).

[5] = ingredient used in isolation, other ingredient 0 ppm, 37° C., 24 hours

Structure (SMILES)	MIC [1, 5]	FIC ([1]; other ingredient 0 ppm)	MIC [1]	MIC [2]	FIC ([2]; other ingredient 0 ppm)	Average log reduction ± SEM (n = 2) [3]	Log reduction [4]	MIC [2, 5]
CC(C)=CCCC(C)=CCO (stereo in doubt) [(Z)-3,7-Dimethyl-2,6-octadien-1-ol]	1200 µg/mL	1.000						
O=Cc1ccc2c(c1)OCO2 [1,3-Benzodioxole-5-carbaldehyde]		1.000	1200 µg/mL	1200 µg/mL	1.00			
Cc1ccc(C(C)C)c(O)c1 [2-isopropyl-5-methylphenol]	600 µg/mL	1.000				0.4 ± 0.0 log	6.0 log	
CCCC(=NO)C(C)C [2-methylhexan-3-one oxime]					1.00			4800 µg/mL
CC(C)(C)Cc1cccnc1 [3-neopentylpyridine]	600 µg/mL	1.000			1.00	0.3 ± 0.2 log	5.9 log	
COc1ccc(C=O)cc1 [4-Methoxybenzaldehyde]	1200 µg/mL	1.000			1.00			
CC/C=C\CC/C=C/CO [(2E,6Z)-nona-2,6-dien-1-ol]		1.000			1.00	0.3 ± 0.2 log	5.7 log	
CC(C)[C@H]1CC[C@@H](CO)CC1 [cis-4(Isopropyl)cyclohexanemethanol]	9600 µg/mL	1.000						
CC1=CCC(C(C)(C)O)CC1 (stereo not drawn) [α-terpineol]								1200 µg/mL
